The record followed here is patent US4072675A, “N-phenyl amidines” (Mead Johnson & Company, priority 1975, dated 1978).

The nature of experiment [1]: Diuretic test in rats according to the Lipschitz method (urine volume and electrolyte excretion vs urea control). The settings on record: rat. Format: in vivo. How it is done:
The compounds of the present invention are evaluated as diuretics according to the method of W. L. Lipschitz, et al., J. Pharmacol. Expt. Therap., 79, 97 (1943). In this method, groups of 8 rats are fasted 18 hours prior to the experiment. A control group is hydrated orally with 25 ml. per kilogram of body weight of isotonic saline solution which is also the vehicle used for dosing the test compound. One control group received a dose of 960 mg./kg. of body weight of urea. Animals of other groups are tested with various doses of the test compound. Immediately after treatment, the animals are placed in metabolism cages (two rats of the same group per cage) and maintained without food or water for 5 hours. The volume of urine excreted by each pair is determined after this period and the pooled urine is analyzed for sodium, potassium, and chloride ions. […] In this test, the N-phenyl amidines of Formula I were orally administered in doses ranging from 2.7 to 25 mg./kg. of body weight.
One of the disadvantages associated with diuretics such as the thiazides is believed to stem largely from increased excretion of potassium ion concomitant with water elimination. […] As stated hereinabove,excessive excretion of potassium ion may cause an electrolyte imbalance resulting in adverse side effects.

Experiment [2] concerns aconitine induced atrial arrhythmia. The experiment can be described thus: In vivo dog arrhythmia test (aconitine induced atrial arrhythmia). The settings on record: Canis lupus familiaris, iv, read-out: effective dose restoring normal cardiac rhythm. An excerpt:
In the in vivo dog arrhythmia test, the chest of an anesthetized dog is opened in the mid-line and the right and left atrial appendages exposed to small slits in the pericardium. Bypolar recording electrodes are affixed to atrial surfaces and a 4 × 4 mm. piece of clean cloth is fixed to surface of the right auricular appendage. Control recordings are made of various heart functions including femoral arterial blood pressure and right and left atrail electrograms. Atrial arrhythmia is then induced by placing 3-5 drops of a solution of aconitine on the cloth which is fixed to the right atrium. An irregular, rapid atrial rate is produced within 1 minute. Throughout the test, fresh aconitine (2-3 drops) is placed on the cloth at 10 minute intervals. The test compound is administered intravenously 5 minutes after the initial establishment of the arrhythmia and infusion continued at a slow rate until an effective dose which re-establishes normal rhythm of the heart is obtained.
The Formula Ia N-phenylamidines are effective both orally and parenterally as antiarrhythmic agents. For instance, intravenous administration of about 2.5 mg./kg. of 3,4,5,6-tetrahydro-7-[(N-phenyl)-phenethylamino]-2H-azepine or 4,5,6,7,8,9-hexahydro-2-(N-phenylphenethyl-amino)-3H-azonine effectively restores normal cardiac rhythm to induced arrhythmia in the dog.

Experiment [3] concerns guinea pig isolated tracheal spiral. The experiment can be described thus: In vitro guinea pig isolated tracheal spiral test. Format: cell-based. How it is done: Another in vitro test measuring the smooth muscle relaxant properties of the compounds of the present invention employs the guinea pig isolated tracheal spiral and is carried out essentially as described by Lish, et al., J. Pharmacol. Exp. Therap., 129, 191 (1960). As illustrative of the activity of the compounds of the present invention in this test there can be mentioned 3-[(N-1-pyrrolin-2-yl-p-anisidino)methyl]indole hydrochloride which is about 1.7 times as potent as aminophylline.

Experiment [4] concerns histamine challenged guinea pig. Nature of the experiment: Histamine challenged guinea pig aerosol test (bronchodilation). Format: in vivo. As to conditions: oral. The text has this:
As a bronchodilating agent, 3-[(N-1-pyrrolin-2-yl-p-anisidino)methyl]indolehydrochloride is of particular interest. In the histamine challenged guinea pig aerosol test, refer to Turner, Screening Methods In Pharmacology, page 214 (1965) (Academic Press, New York), this compound is about 1.4 times as potent as aminophylline when administered orally.

A further experiment relates to rabbit ileum. Nature of the experiment: In vitro smooth muscle relaxant test, isolated rabbit ileum with spasmogen. Format: cell-based. As to conditions: from EC50 vs spasmogen, papaverine = reference. How it is done: Smooth muscle relaxant activity of the compounds of the present invention can be measured in standard in vitro and in vivo pharmacological tests. One such in vitro test is carried out essentially as follows. A segment of rabbit ileum is suspended and oxygenated in Tyrode's solution and affixed to a tension transducer for electronic recording of isometric contractions. After controlled responses to a standard dose of a spasmogen such as barium chloride (0.25 mg./ml.), acetyl choline chloride (1.0 mcg./ml.), etc., are established, the test compound is added and the response to the spasmogen, in the presence of the test agent, again determined. Test compound effect is measured as the percentage reduction in the response to the spasmogen, in the presence of the test compound, from the mean control response. A minimum of four trials is obtained with each of two to five different concentrations of the test compound. The data are expressed in log dose response curves and estimates made therefrom of the EC50 (concentration causing 50% reduction in response of the tissue to the spasmogen). In general, the effect of compounds identified by Formula I on the rabbit ileum is similar to papaverine, a well-known smooth muscle relaxant. […]

Experiment [5] has as its system chloroform induced arrhythmia. The experiment can be described thus: Chloroform induced arrhythmia in the mouse. Format: in vivo. The settings on record: ip, intraperitoneal, read-out: ED50 preventing chloroform induced arrhythmia. The text has this: Another in vivo test indicative of antiarrhythmic activity is chloroform induced arrhythmia in the mouse.
The test system of the next experiment is rabbit atrium. Nature of the experiment: Isolated rabbit atrium test (refractory period). Format: cell-based. As to conditions: Oryctolagus cuniculus, read-out: EC50 (50% of maximal increase in refractory period). How it is done: In the rabbit atrium test, the left atrium is placed in Chenoweth's solution warmed to 30° C. and irrigated with 95% oxygen:5% carbon dioxide. The lower end of the atrium is attached to a small hook fixed in the bath and the upper end is connected to a transducer to record contractile activity. The atrium is electrically stimulated at a basic rate of 30 per minute employing square wave pulses of 10 millisecond duration at 1.2-1.5 times threshold voltage. The test compound is introduced into the bath and the test repeated after a 5 minute interval. A dose response relationship is obtained by additional doses of the test compound. Potency of a test agent can be expressed as the effective concentration which produces 50% of the maximal increase in the measured refractory period of the steady state atrium. This value is designated the EC50.

The test system of a further experiment is intestinal smooth muscle. The experiment can be described thus: In vivo intestinal smooth muscle relaxation in anesthetized cat (intraduodenal pressure). Here is the method: Intestinal smooth muscle relaxant activity can also be measured in an in vivo cat preparation. In this test, a balloon is inserted through a small incision in the stomach of an anesthetized cat to a point about 10 cm. down the duodenum and intralumenal intestinal pressure changes recorded. A solution or suspension of the test agent is administered intraduodenally about 2 cm. beyond the balloon placed for recording intraduodenal pressure in volume doses of 1 ml./kg. body weight. This means of administration mimics oral administration. Various doses of the test agent are administered and an inhibitory dose which supresses intestinal […] by 50% of maximum is determined. This value is designated the ID50. N-benzyl-N'-tert-butyl-N-phenylforamidine hydrochloride compared to papaverine is about 1.5 times as potent in this test.

[6] abbreviates: rabbit left atrium, 30° C., Chenoweth's solution.

By ED50 is commonly meant the dose at which the effect has come halfway, by size or by number of responders. As a reminder, the EC50 is the concentration that produces a half-maximal response.

≈ marks a conversion by molar mass, not a printed value. Where a name gives a salt, the structure may show the parent alone. Read-outs that look alike come from different tables or passages of the source.

`NS(=O)(=O)c1cc2c(cc1Cl)NCNS2(=O)=O` [Hydrochlorothiazide, reference compound]: the “ratio of sodium ion excretion to potassium ion excretion” value in experiment [1] (oral, 6.25 mg./kg.) is listed as 1.65.

In the case of `c1ccc(CCN(C2=NCCCCCCC2)c2ccccc2)cc1` [4,5,6,7,8,9-hexahydro-2-(N-phenylphenethylamino)-3H-azonine], the minimal effective dose in experiment [2] is approximately 2.5 mg/kg.

For `COc1ccc(N(Cc2c[nH]c3ccccc23)C2=NCCC2)cc1` [Example 34, 3-[N-1-Pyrrolin-2-yl-p-anisidino)methyl]indole hydrochloride], the “potency relative to aminophylline (times as potent)” value in experiment [3] was “about 1.7”. Further, in experiment [4], the “bronchodilating potency relative to aminophylline (times as potent)” value was “about 1.4”.

Take `CC(C)(C)N=CN(CCc1ccccc1)c1ccccc1.Cl` [Example 1, N'-tert-Butyl-N-phenethyl-N-phenylformamidine hydrochloride]: in the experiment with rabbit ileum, the “smooth muscle relaxant potency relative to papaverine (times as potent)” value came to 5.

Turning to `CC1CCC(N(Cc2c[nH]c3ccccc23)c2ccccc2)=N1.Cl` (stereo not shown) [Example 37, 3-[[N-(5-methyl-1-pyrrolin-2yl)anilino]methyl]indole hydrochloride], the “smooth muscle relaxant potency relative to papaverine (times as potent)” value with rabbit ileum was 1.4.

With `CC1CCC(N(Cc2ccccc2)c2ccccc2)=N1.Cl` (stereo not shown) [Example 5, 5-Methyl-2-(N-phenylbenzylamino)-1-pyrroline hydrochloride], the “ratio of sodium ion excretion to potassium ion excretion” value in experiment [1] (oral, 6.25 mg./kg.) is 2.7. In experiment [1] (oral, 6.25 mg./kg., 5 hours), the “ratio for potassium ion excretion vs urea control group” value was 0.75, the “ratio for sodium ion excretion vs urea control group” value is listed as 2.03 and the “ratio for volume excretion vs urea control group” value is recorded as 2.32.

`c1ccc(CCN(C2=NCCCCC2)c2ccccc2)cc1` [3,4,5,6-tetrahydro-7-[(N-phenyl)phenethylamino]-2H-azepine]: in experiment [2], the minimal effective dose is approximately 2.5 mg/kg. For the same compound, the median effective dose (ED50) in experiment [5] worked out at 11.5 mg/kg.

As for `C=C[C@H]1C[N@@]2CC[C@H]1C[C@@H]2[C@@H](O)c1ccnc2ccc(OC)cc12` [Quinidine, reference compound], the minimal effective dose in experiment [2] came to 6 mg/kg. For the same compound, the EC50 with rabbit atrium is 18 µg/mL (≈ 55.5 µM).

For the compound `Cl.c1ccc(CCN(C2=NCCCCCCC2)c2ccccc2)cc1` [Example 61, 4,5,6,7,8,9-Hexahydro-2-(N-phenylphenethylamino)-3H-azonine Hydrochloride], the EC50 in the experiment with rabbit atrium (setting [6]) came to 1.9 µg/mL.

With `CC(C)(C)N=CN(Cc1ccccc1)c1ccccc1.Cl` [Example 2, N-Benzyl-N'-tert.-butyl-N-phenylformamidine hydrochloride], in the experiment with intestinal smooth muscle, the “potency relative to papaverine (times as potent, ID50)” value is reported as “about 1.5”.

Turning to `c1ccc(CCN(C2=NCCCCCC2)c2ccccc2)cc1` [Example 60, 3,4,5,6,7,8-Hexahydro-2-(N-phenylphenethylamino)azocine hydrochloride hemihydrate], the EC50 with rabbit atrium (setting [6]) worked out at 2.5 µg/mL.

In the case of `c1ccc(N=C2CCCN2)cc1` [2-phenyliminopyrrolidine, reference compound], in experiment [1] (Lipschitz method), the “diuretic activity (in words)” value was “substantially inactive as a diuretic agent”.

`Cl.c1ccc(CCN(C2=NCCCCC2)c2ccccc2)cc1` [Example 10, 3,4,5,6-Tetrahydro-7-[(N-phenyl)phenethylamino]-2H-azepine hydrochloride]: the EC50 in the experiment on rabbit atrium (setting [6]) stood at 7.2 µg/mL.
